The subject of the test is T1, CelA-SSO1949-CelA.
T1 construct: 70 aa CelA + 163 aa SSO1949 + 29 aa CelA, 262 aa, ~29 kDa, no purification tag
The experiment in a line: FRET fluorescence assay, initial rates. The settings on record: 80°C; pH 3; 0.1 M sodium phosphate. It is filed as biochemical, Thermotoga maritima; Saccharolobus solfataricus. From the text:
FRET fluorescence assay, initial rates on CelA-SSO1949-CelA

By Km is commonly meant the concentration of substrate that gives half-maximal velocity.

As for `CN(C)c1ccc(/N=N/c2ccc(NC(=S)N[C@H]3[C@H](O)[C@@H](O)[C@H](O[C@H]4[C@H](O)[C@@H](O)[C@H](O[C@H]5[C@H](O)[C@@H](O)[C@H](O[C@H]6[C@H](O)[C@@H](O)[C@H](O[C@H]7[C@H](O)[C@@H](O)[C@H](O[C@H]8[C@H](O)[C@@H](O)[C@H](SCC(=O)NCCNc9cccc%10c(S(=O)(=O)O)cccc9%10)O[C@@H]8CO)O[C@@H]7CO)O[C@@H]6CO)O[C@@H]5CO)O[C@@H]4CO)O[C@@H]3CO)cc2)cc1` [fluorescent cellohexaoside, sodium N-{2-N-[(S-(4-deoxy-4-dimethylamino-phenylazophenylthioureido-β-D-glucopyranosyl)-(1→4)-β-D-glucopyranosyl-(1→4)-β-D-glucopyranosyl-(1→4)-β-D-glucopyranosyl-(1→4)-β-D-glucopyranosyl-(1→4)-β-D-glucopyranosyl)-2-thioacetyl]aminoethyl}-1-naphthylamine-5-sulphonate], the Km stood at 1.74 ± 0.15 µM.

The record behind these values is article PMC3655044, “Construction of a chimeric thermoacidophilic beta-endoglucanase” (BMC Biochemistry, 2013).
